# ± gives the standard deviation of the averaged measurements.
# Legend:
# [1] = system: U-2 OS; test: total intracellular glutathione (GSH + GSSG) relative to DMSO (% of control); higher = more glutathione; conditions: 24 h
# Outline: (§1)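 Luminescence readouts gave total glutathione and GSSG (GSH/GSSG-Glo) or viability (CellTiter-Glo), each on its own plates. Cells (U-2 OS, 750 per well, white low-volume 384-well plates) were dosed by pin tool 24 h after seeding, mostly at 20, 10 and 5 μM in 0.4% DMSO, and kept for 24 h at 37 °C. Results were corrected for background and row/column effects and expressed against vehicle or as a GSH:GSSG ratio. Five replicate plates were used.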
# [2] = system: U-2 OS; test: intracellular GSH:GSSG ratio (calculated); higher = more reduced glutathione pool; conditions: 24 h
# Procedure: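 Intracellular glutathione in U-2 OS cells after 24 h compound treatment at 5, 10 and 20 uM (some at 40 and 80 uM). Total glutathione and GSSG were measured with the GSH/GSSG-Glo kit, and the GSH:GSSG ratio was calculated. Mean of five technical replicate plates.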
# [3] = system: U-2 OS; test: AUC of culture confluence over time (live-cell imaging) (AUC (confluence % x time)); higher = more confluent culture (less growth inhibition)
# Outline: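 Each value is the area under a curve of confluence over time for U-2 OS cells. The cells, in F-12K medium with 10% FBS, were plated at 750 per well in 384-well plates and dosed by pin tool 24 h later, most compounds at 20, 10 and 5 μM with 0.2% DMSO. They were held at 37 °C and imaged every 4 h for up to 60 h.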
# [4] = system: U-2 OS; test: relative cell count vs DMSO (cell painting) (fraction of DMSO control); higher = more cells remaining (less cytotoxic); conditions: 24 h
# Outline: (§2)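 Cell painting used U-2 OS cells at about 1,500 per well in 384-well plates, treated by pin tool for 24 h at 37 °C, usually at six 2-fold concentrations from 20 μM to 625 nM. Cells were stained with MitoTracker, concanavalin A, phalloidin, wheat germ agglutinin, Hoechst and SYTO 14 and imaged on an Opera Phenix. Features were extracted with CellProfiler and normalized to DMSO cells on the same plate. The activity score is the Mahalanobis distance from DMSO wells; cell count is relative to DMSO wells. Values are means of four replicate plates.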
# [5] = system: U-2 OS; test: cell painting activity score (Mahalanobis distance from DMSO wells); higher = stronger morphological phenotype; conditions: 24 h
# Outline: as §2
# [6] = system: U-2 OS; test: cell viability (CellTiter-Glo) relative to DMSO (% of control); higher = more viable; conditions: 24 h
# Outline: as §1
Compound,total intracellular glutathione ([1]; 5 µM),total intracellular glutathione ([1]; 10 µM),total intracellular glutathione ([1]; 20 µM),intracellular GSH:GSSG ratio ([2]; 5 µM),intracellular GSH:GSSG ratio ([2]; 10 µM),intracellular GSH:GSSG ratio ([2]; 20 µM),AUC of culture confluence over time ([3]; 0.625 µM),AUC of culture confluence over time ([3]; 1.25 µM),AUC of culture confluence over time ([3]; 2.5 µM),AUC of culture confluence over time ([3]; 5 µM),AUC of culture confluence over time ([3]; 10 µM),AUC of culture confluence over time ([3]; 20 µM),relative cell count ([4]; 0.625 µM),relative cell count ([4]; 1.25 µM),relative cell count ([4]; 2.5 µM),relative cell count ([4]; 5 µM),relative cell count ([4]; 10 µM),relative cell count ([4]; 20 µM),cell painting activity score ([5]; 0.625 µM),cell painting activity score ([5]; 1.25 µM),cell painting activity score ([5]; 2.5 µM),cell painting activity score ([5]; 5 µM),cell painting activity score ([5]; 10 µM),cell painting activity score ([5]; 20 µM),cell viability ([6]; 5 µM),cell viability ([6]; 10 µM),cell viability ([6]; 20 µM),total intracellular glutathione ([1]; 40 µM),total intracellular glutathione ([1]; 80 µM),intracellular GSH:GSSG ratio ([2]; 40 µM),intracellular GSH:GSSG ratio ([2]; 80 µM),AUC of culture confluence over time ([3]; 40 µM),AUC of culture confluence over time ([3]; 80 µM),relative cell count ([4]; 40 µM),relative cell count ([4]; 80 µM),cell painting activity score ([5]; 40 µM),cell painting activity score ([5]; 80 µM),cell viability ([6]; 40 µM),cell viability ([6]; 80 µM)
COc1cc2c(c(OC)c1OC)-c1ccc(OC)c(=O)cc1[C@@H](NC(C)=O)CC2,59.7 ± 3.7,58.1 ± 4.3,60.6 ± 3.2,3,2.46,2.47,21.6,21.5,21,20.1,19.7,22.8 ± 0.82,0.215 ± 0.03,0.215 ± 0.021,0.213 ± 0.02,0.209 ± 0.021,0.205 ± 0.017,0.197 ± 0.018,22.4 ± 2.2,22 ± 1.8,20.7 ± 1.9,20.3 ± 2.4,21.3 ± 1.8,21 ± 1.7,49.1 ± 4,52.8 ± 6.9,57.8 ± 6.9,–,–,–,–,–,–,–,–,–,–,–,–
CCCCCCCc1ccc(CCc2cccc(O)c2C(=O)O)cc1,93.7 ± 3.8,93.1 ± 7.4,83.9 ± 4,21.3,17.1,15.3,–,–,–,41.6,34.5,31.5,1.05,1.11,1.12,1.11,1.11,0.741,4.31,3.72,4.79,5.56,4.29,6.6,98.6 ± 2.9,98.6 ± 4.4,94.4 ± 4.6,62.5 ± 9.8,30.7 ± 11,15.7,11.3,24.6,17.9,0.307,0.365,19.1,23.3,66.6 ± 7.9,17.1 ± 8.5
O=C(OCC)/C(C(OCC)=O)=C\CCCCCCCCCCCCCC,100 ± 4.9,95.7 ± 3.5,93.1 ± 2,18.9,17.6,21.8,–,–,–,53.1,50.2,48.9,0.991,0.978,0.959,1.02,0.99,0.967,5.04,5.19,5.29,5.06,5.95,10.9,94.3 ± 6.5,96.7 ± 6.4,100 ± 8,105 ± 4.8,98.9 ± 3,22,20.9,50.4,50.3,0.841,0.829,7.78,10.2,98 ± 6.9,99.2 ± 6.2
CNC(=O)Nc1ccc2c(c1)[C@@]1(CC2)OC(=O)N(CC(=O)N(Cc2ccc(F)cc2)[C@@H](C)C(F)(F)F)C1=O,100 ± 8.6,122 ± 7.3,90.4 ± 4,20.4,29.9,16.2,–,–,–,45.6,49.6,44.7,0.989,1.01,0.976,1.01,0.982,0.969,4.88,6.13,4.26,5.02,5.83,4.92,105 ± 7.5,98.6 ± 12,103 ± 9.4,–,–,–,–,–,–,–,–,–,–,–,–
O=C(NNS(=O)(=O)c1ccccc1F)c1cc(F)cc(-c2ccccn2)c1,101 ± 5.7,103 ± 5.3,104 ± 5.1,21.6,19.3,22.2,–,–,–,47.7,48.6,51.9,1,0.967,0.966,0.955,0.925,0.939,4.25,5.31,5.99,9.11,10.5,9.4,97.4 ± 5.8,97.1 ± 5.3,97.2 ± 4.7,–,–,–,–,–,–,–,–,–,–,–,–
C[C@H]1CCC/C=C/[C@@H]2C[C@H](O)C[C@H]2[C@H](O)/C=C/C(=O)O1,54 ± 2.2,41.5 ± 18,45.2 ± 18,26.9,17.4,16.1,–,–,–,18.6,18.1,18.2,0.653,0.645,0.645,0.629,0.562,0.479,15.2,14.7,15.3,15.9,15.9,17.6,62.9 ± 3.7,64.5 ± 1.9,63.8 ± 3.9,–,–,–,–,–,–,–,–,–,–,–,–
CC(C)[C@H](C(=O)Nc1ccc(C(=O)NO)cc1)c1ccccc1,40.8 ± 2.6,40.5 ± 3.5,39.6 ± 4.1,6.7,7.56,–,–,–,–,18.7,20,18.2,0.727,0.52,0.497,0.465,0.442,0.41,16.9,20.2,19.4,17.6,13.3,15.9,44.2 ± 4.6,44 ± 1.6,44 ± 1.6,–,–,–,–,–,–,–,–,–,–,–,–

# From the supplement of paper PMC10011410
